Test: PET test using normal cynomolgus monkey (heart contrast PET, SUV in myocardium and bone ROI)
Format: in vivo
Details: for SUV (bone) 20 minutes / SUV (bone) 60 minutes / SUV (bone) 120 minutes / SUV (bone) 180 minutes / SUV (myocardium) 20 minutes / SUV (myocardium) 60 minutes / SUV (myocardium) 120 minutes / SUV (myocardium) 180 minutes: male normal cynomolgus monkey, about 300 MBq i.v.; for SUV (bone) 20 minutes / SUV (bone) 60 minutes / SUV (bone) 120 minutes / SUV (bone) 180 minutes: ROI bone (near the spine), n.d. = target organ cannot be confirmed in the image and ROI cannot be set; for SUV (bone) 20 minutes / SUV (myocardium) 20 minutes: 0 to 20 minutes after administration; for SUV (bone) 60 minutes / SUV (myocardium) 60 minutes: 20-minute section ending 60 minutes after administration; for SUV (bone) 120 minutes / SUV (myocardium) 120 minutes: 20-minute section ending 120 minutes after administration; for SUV (bone) 180 minutes / SUV (myocardium) 180 minutes: 160 to 180 minutes after administration; for SUV (myocardium) 20 minutes / SUV (myocardium) 60 minutes / SUV (myocardium) 120 minutes / SUV (myocardium) 180 minutes: ROI myocardium, Examples 1 case, Reference Example 15 average ± standard error of 3 cases
Source text: Solutions containing each compound prepared in Examples 1 to 7 and Reference Example 15 ([^18F]FTO) were used to perform a heart contrast PET test using normal cynomolgus monkeys.
For performing non-invasive PET imaging, in a state in which a male cynomolgus monkey was anesthetized with inhalation anesthetic isoflurane, the monkey was held at a supine body position on a PET camera SHR17000 (manufactured by Hamamatsu Photonics K.K.), the solution containing each compound (about 300 MBq) was administered from the lower extremity vein, and continuous imaging was performed for 180 minutes or more after the administration. The PET images were reconstructed by dynamic row-action maximum likelihood algorithm (DRAMA) and average images per each time section which is divided every 20 minutes from 0 minutes to 180 minutes after the administration, are obtained. Then, the region of interest (ROI) was set in the myocardium region or bone (near the spine), and the accumulation (standardized uptake value (SUV)) of each compound was calculated as {radioactivity count in the ROI (MBq/cc)/[dose (MBq)/body weight (g)]}.
The SUV values quantified by setting the ROI for the myocardium and the bone of each compound are shown in Tables 10 and 11 as SUV (myocardium) and SUV (bone). […] A case where the target organ cannot be confirmed in the image and the ROI cannot be set is denoted as n.d. The time in the Tables represents an end point of each time section, for example, “20 minutes” represents the SUV value from 0 minutes to 20 minutes after, and “180 minutes” represents the SUV value from 160 minutes to 180 minutes after the administration. In addition, Maximum Intensity Projection (MIP) PET images 60 minutes and 180 minutes after the administration of the compounds of Reference Example 15 ([…]) and Example 6 are shown in FIGS. 1A to 1D.

Row | Structure (SMILES) | SUV (bone) 20 minutes | SUV (bone) 60 minutes | SUV (bone) 120 minutes | SUV (bone) 180 minutes | SUV (myocardium) 20 minutes | SUV (myocardium) 60 minutes | SUV (myocardium) 120 minutes | SUV (myocardium) 180 minutes | non-specific accumulation to the bone (PET, normal cynomolgus monkey, result in words)
1 | CC/C=C\C/C=C\C/C=C\CC([18F])CCSCCC(=O)O (stereo not shown) [Example 1, 3-{[(5Z,8Z,11Z)-3-[lSF]fluorotetradeca-5,8,11-trien-1-yl]sulfanyl}propanoic acid] | 0.87 | 0.69 | 0.75 | 0.79 | 4.87 | 4.13 | 3.21 | 2.80 | 
2 | CCCCC/C=C\C/C=C\CC([18F])CCSCCC(=O)O (stereo not shown) [Example 3, 3-{[(5Z,8Z)-3-[^18F]fluorotetradeca-5,8-dien-1-yl]sulfanyl}propanoic acid] | 2.12 | 2.00 | 2.07 | 2.08 | 5.75 | 3.20 | 2.80 | 2.41 | 
3 | CCCCCCCC/C=C/CC([18F])CCSCCC(=O)O (stereo not shown) [Example 5, 3-{[(5E)-3-[^18F]fluorotetradec-5-en-1-yl]sulfanyl}propanoic acid] | 1.45 | 1.36 | 1.28 | 1.40 | 6.84 | 6.13 | 5.16 | 5.09 | 
4 | CCCCCCCCC1CC1CC([18F])CCSCCC(=O)O (stereo not shown) [Example 6, 3-{[3-[^18F]fluoro-4-(2-octylcyclopropyl)butyl]sulfanyl}propanoic acid] |  |  |  |  | 7.74 | 6.24 | 4.80 | 3.98 | not detected at all
5 | O=C(O)CCSCCCC/C=C\CCCCCCCC[18F] [Reference Example 15, 3-{[(5Z)-14-[^18F]fluorotetradec-5-en-1-yl]sulfanyl}propanoic acid, reference compound] | 1.42 ± 0.10 | 2.27 ± 0.13 | 3.82 ± 0.60 | 5.05 ± 0.99 | 6.45 ± 0.59 | 6.54 ± 0.51 | 5.90 ± 0.58 | 5.21 ± 0.59 | 

Next, values leading:

Row | SUV (bone) 20 minutes | SUV (bone) 60 minutes | SUV (bone) 120 minutes | SUV (bone) 180 minutes | SUV (myocardium) 20 minutes | SUV (myocardium) 60 minutes | SUV (myocardium) 120 minutes | SUV (myocardium) 180 minutes | non-specific accumulation to the bone (PET, normal cynomolgus monkey, result in words) | Structure (SMILES)
6 | 1.40 | 1.05 | 1.34 | 1.14 | 7.40 | 7.53 | 6.74 | 5.92 |  | CCCCCCCCCC([18F])CCSCCC(=O)O (stereo not shown) [Example 2, 3-[(3-[^18F]fluorododecyl)sulfanyl]propanoic acid]
7 | 1.57 | 1.13 | 1.27 | 1.51 | 6.65 | 5.44 | 4.38 | 3.92 |  | CCCCCCCCCCCC([18F])CCSCCC(=O)O (stereo not shown) [Example 4, 3-[(3-[^18F]fluorotetradecyl)sulfanyl]propanoic acid]
8 | 1.87 | 3.41 | 5.11 | 6.36 | 11.6 | 11.4 | 10.0 | 8.44 |  | CCCCCCCCC([18F])CCSCCCCC(=O)O (stereo not shown) [Example 7, 5-[(3-[^18F]fluoroundecyl)sulfanyl]pentanoic acid]

Source: patent US20230065079A1, “FATTY ACID DERIVATIVE LABELED WITH POSITRON-EMITTING RADIONUCLIDE” (ASTELLAS PHARMA INC., priority 2020, published 2023)
